Publication PMC11508633, “In Silico Discovery of a Novel PI3Kδ Inhibitor Incorporating 3,5,7-Trihydroxychroman-4-one Targeting Diffuse Large B-Cell Lymphoma” (International Journal of Molecular Sciences, 2024)

Target: T1, PI3Kδ (Homo sapiens, UniProt O00329)
T1 construct: gene PIK3CD; PI3Kδ (p120δ/p85α); with p85α
Experiment: ADP-Glo kinase assay (PIP2:PS substrate, […] ATP)
Format: biochemical

T1 sequence (O00329 whole entry): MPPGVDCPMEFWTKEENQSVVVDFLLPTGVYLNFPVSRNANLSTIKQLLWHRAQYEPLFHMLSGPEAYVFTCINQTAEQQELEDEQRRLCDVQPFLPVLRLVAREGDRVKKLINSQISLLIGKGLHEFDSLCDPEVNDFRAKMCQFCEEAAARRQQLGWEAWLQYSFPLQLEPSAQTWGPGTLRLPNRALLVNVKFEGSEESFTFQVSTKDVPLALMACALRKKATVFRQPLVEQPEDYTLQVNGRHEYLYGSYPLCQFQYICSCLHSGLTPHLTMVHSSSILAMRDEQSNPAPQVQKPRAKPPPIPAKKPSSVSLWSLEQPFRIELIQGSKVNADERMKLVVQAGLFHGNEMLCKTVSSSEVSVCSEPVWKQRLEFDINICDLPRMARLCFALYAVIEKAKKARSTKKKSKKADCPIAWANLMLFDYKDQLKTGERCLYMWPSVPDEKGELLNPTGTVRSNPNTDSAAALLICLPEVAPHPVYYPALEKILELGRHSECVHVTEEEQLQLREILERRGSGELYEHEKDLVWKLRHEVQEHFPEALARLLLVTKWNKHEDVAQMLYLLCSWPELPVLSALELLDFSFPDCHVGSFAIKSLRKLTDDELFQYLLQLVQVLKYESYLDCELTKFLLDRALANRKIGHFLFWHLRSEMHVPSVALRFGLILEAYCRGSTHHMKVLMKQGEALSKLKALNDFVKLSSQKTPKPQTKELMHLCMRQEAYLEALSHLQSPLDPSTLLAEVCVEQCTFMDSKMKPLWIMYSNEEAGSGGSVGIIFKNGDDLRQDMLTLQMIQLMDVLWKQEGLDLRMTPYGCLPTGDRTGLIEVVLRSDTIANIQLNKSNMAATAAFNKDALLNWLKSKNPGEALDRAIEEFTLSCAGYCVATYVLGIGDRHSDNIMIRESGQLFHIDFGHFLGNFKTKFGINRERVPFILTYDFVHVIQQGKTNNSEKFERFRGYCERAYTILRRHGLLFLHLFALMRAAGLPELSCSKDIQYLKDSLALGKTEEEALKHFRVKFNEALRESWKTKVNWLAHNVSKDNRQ
T1 sequence (P27986 2-724 partner): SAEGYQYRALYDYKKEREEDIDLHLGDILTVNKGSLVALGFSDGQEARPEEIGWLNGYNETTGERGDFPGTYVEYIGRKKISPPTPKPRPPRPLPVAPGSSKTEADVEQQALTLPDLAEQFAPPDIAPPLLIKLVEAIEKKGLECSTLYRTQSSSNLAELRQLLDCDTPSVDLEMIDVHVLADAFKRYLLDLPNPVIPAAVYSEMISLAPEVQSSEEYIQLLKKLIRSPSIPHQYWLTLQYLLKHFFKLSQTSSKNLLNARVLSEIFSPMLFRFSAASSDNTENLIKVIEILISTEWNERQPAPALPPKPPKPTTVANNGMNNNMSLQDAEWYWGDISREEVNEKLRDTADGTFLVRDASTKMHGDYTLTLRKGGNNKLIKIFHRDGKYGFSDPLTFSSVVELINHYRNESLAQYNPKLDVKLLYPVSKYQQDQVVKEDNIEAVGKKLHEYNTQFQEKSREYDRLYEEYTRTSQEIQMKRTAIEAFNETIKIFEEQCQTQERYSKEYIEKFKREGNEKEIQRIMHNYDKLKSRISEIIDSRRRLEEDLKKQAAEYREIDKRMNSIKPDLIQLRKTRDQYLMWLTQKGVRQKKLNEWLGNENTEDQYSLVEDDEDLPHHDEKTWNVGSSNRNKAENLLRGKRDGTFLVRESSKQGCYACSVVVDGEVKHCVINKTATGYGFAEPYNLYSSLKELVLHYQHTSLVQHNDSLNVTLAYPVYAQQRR

COc1cc(C2Oc3cc([C@H]4Oc5cc(O)cc(O)c5C(=O)[C@@H]4O)ccc3OC2CO)ccc1O (stereo partly shown) [Silibinin]
IC50: 288 µM
